Results: the NIST ThermoML archive (doi:10.1016/j.tca.2004.11.022)
Numbers after ± are expanded uncertainties.

Legend:
[1] = molar heat capacity at constant pressure; xn = mol fraction of the nth substance listed; settings: 101 kPa, Liquid, Small sample (50 mg) DSC
[2] = xn = mol fraction of the nth substance listed; settings: 288.15 K, 101 kPa, Liquid, Vibrating tube method

COC(=O)OC [dimethyl carbonate] + CCCCCCCC
molar heat capacity at constant pressure [J/K/mol], [1]
Settings | 288.15 K | 298.15 K | 308.15 K
x1 = 0.05306 | 245.12 ± 4.9 | 248.71 ± 5 | 252.62 ± 5
x1 = 0.1016 | 240.86 ± 4.8 | 244.21 ± 4.9 | 248.11 ± 5
x1 = 0.1496 | – | 240.18 ± 4.8 | 243.91 ± 4.9
x1 = 0.2012 | 232.99 ± 4.7 | 235.89 ± 4.7 | 239.35 ± 4.8
x1 = 0.2999 | 225.81 ± 4.5 | 228.26 ± 4.6 | 231.22 ± 4.6
x1 = 0.4012 | 219.02 ± 4.4 | 220.47 ± 4.4 | 222.77 ± 4.5
x1 = 0.4549 | 215.27 ± 4.3 | 216.32 ± 4.3 | 218.33 ± 4.4
x1 = 0.5037 | 211.61 ± 4.2 | 212.23 ± 4.2 | 213.92 ± 4.3
x1 = 0.5561 | 207.58 ± 4.2 | 207.88 ± 4.2 | 209.21 ± 4.2
x1 = 0.5998 | – | – | 205.31 ± 4.1
x1 = 0.6482 | 199.24 ± 4 | 199.37 ± 4 | 200.7 ± 4
x1 = 0.7075 | 192.93 ± 3.9 | – | –
x1 = 0.7982 | 182.94 ± 3.7 | 183.94 ± 3.7 | 185.39 ± 3.7
x1 = 0.8484 | 177.49 ± 3.5 | 178.74 ± 3.6 | 180.34 ± 3.6
x1 = 0.8969 | – | – | 175.52 ± 3.5
x1 = 0.9493 | 167.98 ± 3.4 | 169.06 ± 3.4 | 170.5 ± 3.4

[2]
Settings | mass density [kg/m3]
x1 = 0.05047 | 715.14 ± 0.27
x1 = 0.1072 | 725.36 ± 0.27
x1 = 0.1969 | 743.56 ± 0.29
x1 = 0.2958 | 766.42 ± 0.31
x1 = 0.4018 | 794.6 ± 0.34
x1 = 0.5011 | 825 ± 0.38
x1 = 0.5974 | 858.8 ± 0.4
